Entries after “also recorded” stand apart in the source; their conditions may differ.
Tests used:
[1] = system: Rat Hypercalcemia Induced by PTHrp(1-34); test: Rat hypercalcemia induced by PTHrp(1-34), oral administration; assay type: in vivo, Wistar rats
Text: (§1) The active ingredient of the present invention normalizes the blood calcium concentration in rat hypercalcemia induced by PTHrp(1-34). PTHrp (parathyroid hormone-related protein) is a protein identified as the factor inducing hypercalcemia in humans. The fragment comprised of the 1 to 34th amino acid residues, that is, PTHrp(1-34), is the active type. The PTHrp(1-34) promotes bone resorption in vitro and induces hypercalcemia if administered to rats.
(§2) Using this model, the compound of the present invention was administered to Wistar rats, then PTHrp(1-34) was administered and the blood calcium concentration was measured after one hour after administration. […] That is, the compound of the present invention suppresses hypercalcemia induced by PTHrp(1-34), so is useful as a prophylactic or therapeutic agent for bone diseases.
To Wistar rats (5 weeks old, male, 90 to 110 g, 5 animals in each group), 40 mg/kg body weight of the compounds listed in Table 1 were administered orally. Four hours later, 5 nmole/kg of PTHrp(1-34) was intravenously injected. One hour after the administration of PTHrp(1-34), a blood sample was collected from each animal and the blood calcium concentration was measured by the octocresolphthalein complexone method.
Note that for reference, a similar evaluation was made of L-trans-epoxysuccinyl-L-leucineamide (e-guanide)-butane (E-64) Japanese Unexamined Patent Publication (Kokai) No. 63-284127 and the Z-Phe-Ala-CH2 F described in Japanese Examined Patent Publication (Kokoku) No. 4-1737.

[2] = system: Rat Hypercalcemia Induced by PTHrp(1-34); test: Rat hypercalcemia induced by PTHrp(1-34), subcutaneous administration; assay type: in vivo, Wistar rats; details: 40 mg/kg subcutaneously at the back; 2 h later PTHrp(1-34) 5 nmole/kg i.v.; blood 1 h after PTHrp; n = 5; PTHrp-only group 11.28 ± 0.08, untreated 10.68 ± 0.09
Text: as §1, §2
In the same way as Example 7, to Wistar rats (5 weeks old, male, 90 to 110 g, 5 animals in each group), 40 mg/kg body weight of the compounds listed in Table 1 were administered subcutaneously at the back. Two hours later, 5 nmole/kg of PTHrp(1-34) was intravenously injected. One hour after the administration of PTHrp(1-34), a blood sample was collected from each animal and the blood calcium concentration was measured by the octocresolphthalein complexone method.

[3] = system: rats; test: Acute toxicity LD50 after oral administration to rats; assay type: in vivo; details: in 20 hours
Protocol: The compound of the present invention is a low molecular weight dipeptide derivative, so the toxicity is low. For example, the acute toxicity LD50 of the compound 1 shown in Table 1 in 20 hours after oral administration to rats is over 1 g/kg.

[4] = 40 mg/kg orally; 4 h later PTHrp(1-34) 5 nmole/kg i.v.; blood 1 h after PTHrp; n = 5; PTHrp-only group 11.87 ± 0.14, untreated 11.42 ± 0.14

Row | SMILES | Ca conc. ± standard error (average blood calcium concentration) [1, 4] [mg/dL] | effect on rise in blood calcium concentration (in words) ([1]; oral administration, 40 mg/kg, vs group treated with PTHrp(1-34) only) | Ca conc. ± standard error (average blood calcium concentration) [2] [mg/dL] | acute toxicity LD50 [3] | effect on rise in blood calcium concentration (in words) ([1]; oral administration, 40 mg/kg, vs group treated with PTHrp(1-34) only; 40 mg/kg)
1 | CC(C)C[C@H](NC(=O)[C@H]1O[C@@H]1C(=O)O)C(=O)NCCCCN=C(N)N (relative stereo) [Example E-64, L-trans-epoxysuccinyl-L-leucineamide (e-guanide)-butane] | 11.09 ± 0.14 | significantly suppressed the rise in the blood calcium concentration | 10.20 ± 0.09 | – | –
2 | CCCCC(NC(=O)C(CC(C)C)NC(C)=O)C(=O)CF (stereo not drawn) [Ac-Leu-Nle-CH2 F, 3-(N-acetyl-leucylamide)-1-fluoro-2-heptanone] | 10.49 ± 0.09 | – | 10.13 ± 0.11 | – | –
3 | CCCCC(NC(=O)C(CC(C)C)NC(=O)OCc1ccccc1)C(=O)CF (stereo not drawn) [Z-Leu-Nle-CH2 F, 3-(N-benzyloxycarbonyl-leucylamide)-1-fluoro-2-heptanone] | 11.09 ± 0.14 | – | – | over 1 g/kg | –
4 | CC(NC(=O)C(Cc1ccccc1)NC(=O)OCc1ccccc1)C(=O)CF (stereo not drawn) [Z-Phe-Ala-CH2 F, 3-(N-benzyloxycarbonylphenylalanylamide)-1-fluoro-2-butanone] | 12.02 ± 0.20 | – | – | – | did not exhibit an activity; also recorded: did not exhibit any action of normalizing the calcium concentration

Source: patent publication US5399743A, “Dipeptide derivative and prophylactic or therapeutic agent for bone diseases containing same as active ingredient” (Suntory Limited, priority 1992, dated 1995)
